# Results taken from patent publication US9375438B2, “Inhibitors of NCCa-ATP channels for therapy” (University of Maryland, Baltimore, priority 2007, dated 2016).
# “Also recorded” adds a separate entry of the source. Where two headings read alike, the source gives them in different places.
# How the values were obtained:
# [1] = tested on: rats with hemi-cervical spinal cord contusion (SCI); assay: SCI model: vimentin immunolabeling of capillaries; type: in vivo, rat; settings: region of injury; glibenclamide 200 ng/h s.q. vs controls
# Method: (§1) SCI injury model. This study was performed in accordance with the guidelines of the Institutional Animal Care and Use Committee. Adult female Long-Evans rats (275-350 gm) were anesthetized (Ketamine, 60 mg/kg plus Xylazine, 7.5 mg/kg, i.p.). The dura at C4-5 was exposed via a left hemilaminectomy. A hemi-cervical spinal cord contusion was created using a blunt force impactor (1.3-mm impactor head driven by a 10 gm weight dropped vertically 25 mm) (Soblosky et al., 2001; Gensel et al., 2006). After SCI, animals were given 10 ml of glucose-free normal saline s.q. Rectal temperature was maintained at ˜37° C. using a servo-controlled warming blanket. Blood gases and serum glucose 10-15 min post-SCI were: pO2, 95±6 mm Hg; pCO2, 46±3 mm Hg; pH, 7.33±0.01; glucose 258±17 mg/dl in controls and pO2, 96±7 mm Hg; pCO2, 45±2 mm Hg; pH, 7.37±0.01; glucose 242±14 mg/dl in glibenclamide-treated animals.
# (§2) Drug delivery. […] During the course of the project, slightly different formulations of drug were used, with the best results obtained using stock solutions made by placing 50 mg (or 25 mg) of drug into 10 ml DMSO, and infusion solutions made by placing 400 μl (or 800 μl) stock into 4.6 ml (or 4.2 ml) unbuffered saline (0.9% NaCl) and adjusting the pH to ˜8.5 using 0.1 N NaOH.
# Immunohistochemistry. […] Quantitative immunofluorescence was performed as described (Gerzanich et al., 2003).
# [2] = tested on: rats with hemi-cervical spinal cord contusion (SCI); settings: following SCI (Simard et al., 2007); cited from earlier work
# [3] = tested on: cells expressing SUR1-regulated NCCa-ATP channel; settings: cited from earlier work
# [4] = tested on: rodent models of ischemic stroke; settings: model of malignant cerebral edema; cited from earlier work
# [5] = tested on: rats with hemi-cervical spinal cord contusion (SCI); assay: SCI model: neurobehavioral assessment (inclined plane, paw placement, rearing); type: in vivo, rat
# Method: as §1, with “blanket.” for “blanket. Blood gases and serum glucose 10-15 min post-SCI were: pO2, 95±6 mm Hg; pCO2, 46±3 mm Hg; pH, 7.33±0.01; glucose 258±17 mg/dl in controls and pO2, 96±7 mm Hg; pCO2, 45±2 mm Hg; pH, 7.37±0.01; glucose 242±14 mg/dl in glibenclamide-treated animals.”
# For in vivo gene suppression of SUR1, we used oligodeoxynucleotides that were phosphorothioated at 4 distal bonds to protect against endogenous nucleases (35).
# Neurobehavioral Assessment. All measurements were performed by blinded evaluators. Performance on the inclined plane was evaluated as described (Rivlin and Tator, 1977). To assess paw placement and vertical exploration (rearing) (Nikulina et al., 2004) animals were videotaped while in a translucent cylinder (19×20 cm). Rearing was quantified as the number of seconds spent with both front paws elevated above shoulder-height during a 3-min period of observation.
# [6] = tested on: rats with percussion-TBI; assay: Percussion-TBI model: spontaneous forelimb use and spontaneous vertical exploration; type: in vivo, rat
# Excerpt: (§3) Young adult male Long-Evans rats, 240-280 gm, were studied. Rats were anesthetized (Ketamine and Xylazine) and physiological parameters including temperature and blood gases were maintained within appropriate physiological ranges. With the head fixed in a stereotaxic frame, a 6-mm circular craniectomy was created abutting the sagittal and lambdoidal sutures. A posterior location was chosen to emphasize damage to underlying hippocampus (Vink et al., 2001; Floyd et al., 2002). […] Sham controls underwent craniectomy without percussion.
# Spontaneous forelimb use (SFU) was quantified and spontaneous vertical exploration (SVE) was quantified during 7 days post-TBI. SFU measures sensorimotor asymmetry (Schallert et al., 2000) whereas SVE measures not only vestibulomotor function but also time spent in exploratory activity.
# [7] = tested on: recombinant MMP-2 and MMP-9; assay: Zymography, gelatinase activity of recombinant MMP; type: biochemical; settings: glibenclamide 10 μM; MMP-inhibitor II 300 nM
# Method: Zymography of recombinant MMP-2 and MMP-9 (Sigma) was performed as described (Sumii and Lo, 2002).
# [8] = Long-Evans, rat, in vivo
# [9] = tested on: rats with hemi-cervical spinal cord contusion (SCI); settings: following SCI (Simard et al., 2007); cited from earlier work; remark: listed apart in the source
# [10] = tested on: rats with percussion-TBI; assay: Percussion-TBI model: lesion size and hippocampal neurons (Nissl sections); type: in vivo, rat; settings: 7 days post-TBI
# Excerpt: as §3
# [11] = tested on: rats with percussion-TBI; assay: Percussion-TBI model: extravasated blood in brain homogenates; type: in vivo, rat
# Excerpt: as §3
# [12] = tested on: uninjured rats; assay: Tail tip bleeding time; type: in vivo, rat; settings: for bleeding time (effect): uninjured rats infused with glibenclamide vs vehicle
# Method: Bleeding times were measured using tail tip bleeding as described (Lorrain et al., 2003).
# [13] = Effect of glibenclamide doses on serum glucose; type: in vivo, rat; settings: uninjured rats and rats with stroke and SCI; dose1-dose4
# [14] = tested on: rats with hemi-cervical spinal cord contusion (SCI); assay: SCI model: lesion size; type: in vivo, rat
# Method: as §1, §2
# Lesion size. At 7 d post-SCI, cords were paraffin sectioned and stained with H&E. Lesion volumes were calculated from lesion areas measured on serial sections every 250 μm.
# Immunohistochemistry. Cryosections were immunolabeled (Chen et al., 2003; Simard et al., 2006) using primary antibodies directed against SUR1 (Santa Cruz, C-16; 1:200; 1 h at RT, 48 h at 4° C.), SUR2 (Santa Cruz, H-80; 1:200; 1 h at RT, 48 h at 4° C.), GFAP (Sigma, C-9205; 1:500), and vimentin (Sigma, monoclonal CY3 conjugated; 1:100). Quantitative immunofluorescence was performed as described (Gerzanich et al., 2003).
# [15] = 1, 3 and 7 d post-SCI, glibenclamide vs vehicle
structure (smiles),measurement,setting,value
COc1ccc(Cl)cc1C(=O)NCCc1ccc(S(=O)(=O)NC(=O)NC2CCCCC2)cc1 [glibenclamide],appearance of vimentin(+) capillaries,[1],elongated and appeared more normal
same,reduction in lesion volume,[2],3 fold
same,oncotic (necrotic) cell death on ATP depletion,[3],can be blocked
same,mortality,[4],by half
same,performance on inclined plane,[5]; [15],significantly better performance
same,"vertical exploratory behavior (rearing), performance",[5]; [15],significantly better performance
same,vertical exploratory behavior (rearing),"[5]; 1 d post-SCI, additional groups, 14-15 rats/group, 3-min observation",42 ± 7 s
same,ipsilateral paw placement,"[5]; 1 d post-SCI, glibenclamide vs vehicle",significantly better performance
same,mobility / exploratory behavior,"[5]; post-SCI, vs vehicle-treated rats",typically ambulatory and often exhibited proficient exploratory behavior
same,spontaneous vertical exploration (SVE),"[6]; 1, 2 and 7 days post-TBI, vs vehicle controls",significantly greater
same,spontaneous use of the forelimb contralateral to the injury,[6]; 2 days post-TBI,16.5±3.4%
same,gelatinase activity of recombinant MMP,[7],the same; also recorded: not affected
same,time required to achieve 90% steady-state serum drug levels,[8],3 h
same,capillary fragmentation and progressive secondary hemorrhage,[9],essentially eliminates
same,lesion area on coronal sections at the epicenter of injury,[10]; 10 rats/group,4.4±0.8 mm^2
same,hippocampus on Nissl stained sections,[10]; vs vehicle,sparing of hippocampus
same,appearance of tissue homogenates,"[11]; 24 hr post-injury, vs vehicle",visibly less bloody
same,increase in extravasated blood,"[11]; later times (6 and 24 hr) post-TBI, vs vehicle",prevented further increases in blood
same,volume of blood in brain homogenate,"[11]; ½ hr post-injury, glibenclamide 200 ng/hr s.q. vs vehicle",did not affect
same,bleeding time (effect),[12],no effect
same,bleeding time (effect),[12]; listed as Glibenclamide,did not affect
same,tail bleeding time,"[12]; uninjured rats, same dose (200 ng/hr), n=3-5",21.5 ± 3.1 s
same,effect of proposed doses on serum glucose,[13],"only the highest are hypoglycemogenic, but only mildly so"
same,"lesions, gliosis and myelin (GFAP and myelin labeling)","[14]; 24 h post-SCI, vs controls","smaller lesions, less reactive gliosis and better myelin preservation"
same,lesions on hematoxylin and eosin cross sections,"[14]; 7 d post-SCI, vs controls",smaller lesions
same,reduction in lesion volume,"[14]; following SCI, compared to controls (summary)",3 fold
